The text below walks through data of patent US20230002446A1, “ANTI-INFLAMMATORY AGENTS” (The University of Sydney, priority 2019, published 2023).

The structures appear in SMILES notation. Where a SMILES comes first, the peptide text is derived from it. [ ]: non-standard residue; d: D form. AEEA = NCCOCCOCC(=O)O

The data set deals with C57BL/6 mice. Put plainly: imiquimod-induced psoriasis model. The data set is classed as in vivo. As to the method:
FIG. 4—Peptide administration reduces local disease severity in a mouse model of psoriasis. (A) Experimental outline (B) Clinical scores of mice receiving PBS or peptide RP23 (SEQ ID NO:12) injection, compared to daily (0-4 days) topical application of glucocorticoid on the back and ear. (C) Measures of disease local to the peptide RP23 injection site. Redness was measured using an unbiased erythema meter and skin thickness by manual callipers. (D) Spleen weight at day 5 as a measure of systemic immune suppression. […] Data are presented as mean±S.E.M. Statistical significance was determined by ANOVA with Dunnett's multiple comparison test, *p<0.05, **p<0.01, ***p<0.001, ****p<0.0001.
FIG. 10. Therapeutic synergy of RP23 and topical steroid in the murine imiquimod-induced psoriasis model. Aldara cream (5% imiquimod, 57.5 mgs) was applied daily (days 0-4) to the backs of C57BL/6 female mice to induce psoriasis. Clinical scores (PASI), modified psoriasis area and severity index) of mice receiving (A) PBS or RP23 injection at day −1, with or without topical application of glucocorticoid (0.05% betamethasone dipropionate, “BD” 30 mgs) on the back at day 0 (B) PBS or RP23 injection at day 1 and topical application of glucocorticoid at day 1, in comparison to PBS injection only at day −1. Data are the means+/−SEM (n=5). Statistical significance was determined by ANOVA with Dunnett's multiple comparison test to PBS only control, *p<0.05, **p<0.01, ***p<0.001, ****p<0.0001.
The backs of 8-week old female C57BL/6 mice (Australian BioResources) were coarse shaved. A minimum of 24 hours later, 10 nmol RP23 was delivered via sub-cutaneous injection at the lower back in 200 μl phosphate buffered saline (PBS). Groups of mice acting as positive controls for disease development received injection of PBS only. One or seven days later, psoriasis-like inflammation was induced via topical application of 5% imiquimod cream (Aldara, Inova Pharmaceuticals) to the shaved back (57.5 mgs) and one ear (5 mg, divided between dorsal and ventral sides). The contralateral ear served as a negative control for imiquimod-induced inflammation. Imiquimod application was repeated daily for four consecutive days. C57BL/6 mice experience rapid weight loss (up to 20%) upon application of imiquimod cream. Supportive care was provided in the form of dietary supplementation commenced 2 days prior to imiquimod application, and intra-peritoneal injection of 300 μl sterile PBS on days two and three of imiquimod application. Disease progression was monitored for five days, by recording weight loss and grading disease of the back skin using a modified Psoriasis Area and Severity Index (PASI) clinical scoring system, that assessed only disease severity. Additionally, erythema meter (DSM II ColorMeter, Cortex Technology, Denmark) readings were taken at four quadrants on the back skin and skin backfold thickness measurements were recorded using manual callipers. Disease progression of the ear skin was determined by recording ear thickness, measured by manual callipers. As a positive control for immune suppressive therapy, groups of mice received daily topical application of betamethasone dipropionate 0.05% (MSD) cream (30 mgs on the back, 10 mgs on the ear).
Aldara cream (5% imiquimod, 57.5 mgs) was applied daily (days 0-4) to the backs of C57BL/6 female mice to induce psoriasis. Clinical scores (PASI, modified psoriasis area and severity index) of mice receiving prophylactic PBS or RP23 (at day −1), with or without topical application of glucocorticoid (0.05% betamethasone dipropionate, 30 mgs) to the back at day 0, were determined (FIG. 10A).
RP23 and BD therapy were also tested when given synergistically at a therapeutic timepoint (at day 1). Psoriasis was induced as above, but clinical scores were determined daily for 10 days after ceasing imiquimod application at day 5, to record the rate and degree of psoriasis disease resolution (FIG. 10B).

Consider `CSCC[C@H](NC(=O)COCCOCCNC(=O)[C@H](CCCCN)NC(=O)[C@H](CCCCN)NC(=O)[C@H](CCCCN)NC(=O)[C@@H](N)CCCCN)C(=O)N[C@H](C(=O)N1CCC[C@H]1C(=O)NCC(=O)N[C@H](C(=O)N[C@@H](CCC(N)=O)C(=O)N[C@@H](CO)C(=O)N1CCC[C@H]1C(=O)N[C@@H](Cc1ccccc1)C(=O)N[C@@H](Cc1ccccc1)C(=O)N[C@@H](CC(C)C)C(=O)N[C@@H](CC(C)C)C(=O)N[C@@H](CC(C)C)C(=O)N[C@@H](CC(C)C)C(=O)N[C@@H](CC(C)C)C(=O)N[C@H](C(=O)N[C@H](C(=O)N[C@@H](CC(C)C)C(=O)N[C@H](C(=O)N[C@H](C(=O)N[C@H](C(=O)O)C(C)C)C(C)C)[C@@H](C)O)C(C)C)[C@@H](C)O)[C@@H](C)O)[C@@H](C)O` [RP23] (H-KKKK[AEEA]MTPGTQSPFFLLLLLTVLTVV-OH), for which the “disease at a distal site (ear thickness)” value (injection at lower back, ear measured) was “did not suppress disease at a distal site”. Moreover, under “single injection”, the local erythema result is “reduced”, the scaling entry is given as “reduced” and the skin thickness entry is recorded as “reduced”. In addition, the “systemic immune suppression / locality of effect” value (spleen weight at day 5, distal ear thickness (FIG. 4d)) was “isolated to the area in which RP23 was delivered”.
